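Values below derive from 48-hour exposures of cells grown in 96-well plates, with endpoints linearly interpolated between the two concentrations bracketing the appropriate inhibition level. Abbreviation: GI50, concentration required for 50% inhibition of growth.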 The source made the active and inactive calls. Rule as the data show it: active = GI50 up to about 1.1 µM and inactive = higher.
Tests used:
Assay in all cases: NCI anticancer screen, dose series, 48 h
[1] = tested on: A549
[2] = tested on: ACHN
[3] = tested on: CAKI-1
[4] = tested on: CCRF-CEM
[5] = tested on: COLO 205
[6] = tested on: HCT-15
[7] = tested on: HL-60
[8] = tested on: KM12
[9] = tested on: Malme-3M
[10] = tested on: NCI-H460
[11] = tested on: SF-539
[12] = tested on: SK-MEL-2
[13] = tested on: SN12C
[14] = tested on: UACC-62
[15] = tested on: RPMI-8226
[16] = tested on: NCI-H522

SMILES	GI50 [1]	GI50 [2]	GI50 [3]	GI50 [4]	GI50 [5]	GI50 [6] [µM]	GI50 [7]	GI50 [8]	GI50 [9]	GI50 [10]	GI50 [11]	GI50 [12]	GI50 [13]	GI50 [14]	GI50 [15]	GI50 [16]
O=[N+]([O-])c1cc(-c2nnc(S)[nH]2)ccc1O	> 100 µM (inactive)	> 100 µM (inactive)	> 100 µM (inactive)	> 100 µM (inactive)	20.1 µM (inactive)	16.5	> 100 µM (inactive)	> 100 µM (inactive)	> 100 µM (inactive)	44.4 µM (inactive)	> 100 µM (inactive)	> 100 µM (inactive)	> 100 µM (inactive)	> 100 µM (inactive)	–	–
CC(C)C1CNC2N1C(=O)C2(C)OCc1ccccc1 (stereo not drawn)	> 100 µM (inactive)	> 100 µM (inactive)	–	> 100 µM (inactive)	> 100 µM (inactive)	> 100	> 100 µM (inactive)	–	> 100 µM (inactive)	> 100 µM (inactive)	> 100 µM (inactive)	> 100 µM (inactive)	> 100 µM (inactive)	> 100 µM (inactive)	91.2 µM (inactive)	–
O=C(O)C1OC(Oc2cc(O)c3c(=O)cc(-c4ccc(O)cc4)oc3c2)C(O)C(O)C1O (stereo not drawn)	> 100 µM (inactive)	> 100 µM (inactive)	> 100 µM (inactive)	–	> 100 µM (inactive)	–	> 100 µM (inactive)	> 100 µM (inactive)	> 100 µM (inactive)	> 100 µM (inactive)	> 100 µM (inactive)	> 100 µM (inactive)	> 100 µM (inactive)	–	–	> 100 µM (inactive)
COc1cc(NCC(C#N)C#N)ccc1/N=N/c1ccc(Cl)cc1	33.4 µM (inactive)	31.8 µM (inactive)	–	18.9 µM (inactive)	17.7 µM (inactive)	20	–	14.2 µM (inactive)	35.2 µM (inactive)	23.2 µM (inactive)	25.1 µM (inactive)	21.7 µM (inactive)	38.8 µM (inactive)	10.6 µM (inactive)	28.6 µM (inactive)	16.6 µM (inactive)
N#CNc1nc(C(=O)Nc2ccc(Cl)cc2)cc(-c2ccccc2)n1	> 100 µM (inactive)	> 100 µM (inactive)	> 100 µM (inactive)	–	–	> 100	> 100 µM (inactive)	> 100 µM (inactive)	> 100 µM (inactive)	–	> 100 µM (inactive)	> 100 µM (inactive)	> 100 µM (inactive)	> 100 µM (inactive)	> 100 µM (inactive)	–
Cc1cc(Cl)ccc1NC1=NC(=O)C(CC(=O)Nc2ccc(Cl)cc2Cl)S1 (stereo not drawn)	> 100 µM (inactive)	> 100 µM (inactive)	> 100 µM (inactive)	> 100 µM (inactive)	> 100 µM (inactive)	> 100	–	> 100 µM (inactive)	> 100 µM (inactive)	> 100 µM (inactive)	> 100 µM (inactive)	> 100 µM (inactive)	> 100 µM (inactive)	> 100 µM (inactive)	> 100 µM (inactive)	–
COc1cc2nc(-c3cccc(N(C)C)c3)cc(O)c2cc1OC	4.06 µM (inactive)	14.5 µM (inactive)	–	3.87 µM (inactive)	3.85 µM (inactive)	2.99	2.7 µM (inactive)	3.31 µM (inactive)	2.23 µM (inactive)	3.94 µM (inactive)	2.66 µM (inactive)	–	7.67 µM (inactive)	3.44 µM (inactive)	3.65 µM (inactive)	2.81 µM (inactive)
Nc1ccc2c(c1)C(=O)N(OS(=O)(=O)c1ccccc1)C2=O	> 100 µM (inactive)	> 100 µM (inactive)	> 100 µM (inactive)	76.6 µM (inactive)	56.4 µM (inactive)	> 100	46.5 µM (inactive)	> 100 µM (inactive)	94.4 µM (inactive)	> 100 µM (inactive)	> 100 µM (inactive)	> 100 µM (inactive)	> 100 µM (inactive)	> 100 µM (inactive)	–	21.5 µM (inactive)
